Results on 34 compounds are retold here after US20080167314A1, “Condensed Imidazole Compound And Use Thereof” (priority 2004, published 2008).

The melting point is the temperature of the solid-liquid transition.

Turning to `CCNC(=O)Nc1cc(-c2c(-c3ccc(F)c(C)c3)nc3c(C)cc(Cl)nn23)ccn1` [Example 48-1, N-{4-[6-chloro-2-(4-fluoro-3-methylphenyl)-8-methylimidazo[1,2-b]pyridazin-3-yl]-2-pyridyl}-N′-ethylurea], the melting point is 229 to 230 °C.
The figure for `CCNC(=O)Nc1cc(-c2c(-c3ccc(F)c(C)c3)nc3cc(C(C)(C)C)c(Cl)nn23)ccn1` [Example 48-2, N-{4-[7-tert-butyl-6-chloro-2-(4-fluoro-3-methylphenyl)imidazo[1,2-b]pyridazin-3-yl]-2-pyridyl}-N′-ethylurea] is 246 to 247 °C; for `CCNC(=O)Nc1cc(-c2c(-c3ccc(F)c(C)c3)nc3c(C)ccnn23)ccn1` [Example 48-3, N-{4-[2-(4-fluoro-3-methylphenyl)-8-methylimidazo[1,2-b]pyridazin-3-yl]-2-pyridyl}-N′-ethylurea] it is 240 to 241 °C; for `CCNC(=O)Nc1cc(-c2c(-c3ccc(F)c(C)c3)nc3cc(C(C)(C)C)cnn23)ccn1` [Example 48-4, N-{4-[7-tert-butyl-2-(4-fluoro-3-methylphenyl)imidazo[1,2-b]pyridazin-3-yl]-2-pyridyl}-N′-ethylurea] it is 212 to 213 °C.
`CCNC(=O)Nc1cc(-c2c(-c3ccc(F)c(C)c3)nc3ccc(NC)nn23)ccn1` [Example 48-5, N-ethyl-N′-{4-[2-(4-fluoro-3-methylphenyl)-6-(methylamino)imidazo[1,2-b]pyridazin-3-yl]pyridin-2-yl}urea] came in with a melting point of 263 to 264 °C.
The figure for `Cc1cc(-c2nc3cccnn3c2-c2ccnc(NC(=O)NC3CC3)c2)ccc1F` [Example 51-1, N-cyclopropyl-N′-{4-[2-(4-fluoro-3-methylphenyl)imidazo[1,2-b]pyridazin-3-yl]pyridin-2-yl}urea] is 222 to 223 °C; for `Cc1cc(-c2nc3cccnn3c2-c2ccnc(NC(=O)NCC(F)(F)F)c2)ccc1F` [Example 51-2, N-{4-[2-(4-fluoro-3-methylphenyl)imidazo[1,2-b]pyridazin-3-yl]pyridin-2-yl}-N′-(2,2,2-trifluoroethyl)urea] it is 229 to 230 °C.
As for `Cc1cc(-c2nc3cccnn3c2-c2ccnc(NC(=O)NCC(C)C)c2)ccc1F` [Example 51-3, N-{4-[2-(4-fluoro-3-methylphenyl)imidazo[1,2-b]pyridazin-3-yl]pyridin-2-yl}-N′-isobutylurea], the figure is 213 to 214 °C; as for `CCC(CC)NC(=O)Nc1cc(-c2c(-c3ccc(F)c(C)c3)nc3cccnn23)ccn1` [Example 51-4, N-(1-ethylpropyl)-N′-{4-[2-(4-fluoro-3-methylphenyl)imidazo[1,2-b]pyridazin-3-yl]pyridin-2-yl}urea], 187 to 188 °C.
Compound `Cc1cc(-c2nc3cccnn3c2-c2ccnc(NC(=O)NCCS(C)(=O)=O)c2)ccc1F` [Example 51-5, N-{4-[2-(4-fluoro-3-methylphenyl)imidazo[1,2-b]pyridazin-3-yl]pyridin-2-yl}-N′-[2-(methylsulfonyl)ethyl]urea] yielded a melting point of 204 to 205 °C.
As for `CSc1ccc(NC(=O)Nc2cc(-c3c(-c4ccc(F)c(C)c4)nc4cccnn34)ccn2)cc1` [Example 51-6, N-{4-[2-(4-fluoro-3-methylphenyl)imidazo[1,2-b]pyridazin-3-yl]pyridin-2-yl}-N′-[4-(methylthio)phenyl]urea], the figure is 219 to 220 °C.
As for `Cc1cc(-c2nc3cccnn3c2-c2ccnc(NC(=O)Nc3cccnc3)c2)ccc1F` [Example 51-7, N-{4-[2-(4-fluoro-3-methylphenyl)imidazo[1,2-b]pyridazin-3-yl]pyridin-2-yl}-N′-(pyridin-3-yl)urea], the figure is 233 to 234 °C.
`Cc1cc(NC(=O)Nc2cc(-c3c(-c4ccc(F)c(C)c4)nc4cccnn34)ccn2)[nH]n1` [Example 51-8, N-{4-[2-(4-fluoro-3-methylphenyl)imidazo[1,2-b]pyridazin-3-yl]pyridin-2-yl}-N′-(3-methyl-1H-pyrazol-5-yl)urea]: the melting point is 239 to 240 °C.
The figure for `Cc1cc(-c2nc3cccnn3c2-c2ccnc(NC(N)=O)c2)ccc1F` [Example 51-9, N-{4-[2-(4-fluoro-3-methylphenyl)imidazo[1,2-b]pyridazin-3-yl]pyridin-2-yl}urea] is 254 to 255 °C.
On to `Cc1cc(-c2nc3cccnn3c2-c2ccnc(NC(=O)NC3CCC(O)CC3)c2)ccc1F` (stereo not shown) [Example 51-10, N-{4-[2-(4-fluoro-3-methylphenyl)imidazo[1,2-b]pyridazin-3-yl]pyridin-2-yl}-N′-(4-hydroxycyclohexyl)urea], for which the melting point was 218 to 220 °C.
The figure for `Cc1cc(-c2nc3cccnn3c2-c2ccnc(NC(=O)NCC(C)O)c2)ccc1F` (stereo not shown) [Example 51-13, N-{4-[2-(4-fluoro-3-methylphenyl)imidazo[1,2-b]pyridazin-3-yl]pyridin-2-yl}-N′-(2-hydroxypropyl)urea] is 139 to 140 °C; for `Cc1cc(-c2nc3cccnn3c2-c2ccnc(NC(=O)NC3CCOCC3)c2)ccc1F` [Example 51-15, N-{4-[2-(4-fluoro-3-methylphenyl)imidazo[1,2-b]pyridazin-3-yl]pyridin-2-yl}-N′-(tetrahydro-2H-pyran-4-yl)urea] it is 240 to 241 °C; for `Cc1cccc(-c2nc3cccnn3c2-c2ccnc(NC(=O)NC3CCOCC3)c2)c1` [Example 52, N-{4-[2-(3-Methylphenyl)imidazo[1,2-b]pyridazin-3-yl]pyridin-2-yl}-N′-(tetrahydro-2H-pyran-4-yl)urea] it is 222 °C.
For `COc1ccc2nc(-c3ccc(F)c(C)c3)c(-c3ccnc(NC(=O)NC(C)C)c3)n2n1` [Example 53, N-{4-[2-(4-Fluoro-3-methylphenyl)-6-methoxyimidazo[1,2-b]pyridazin-3-yl]pyridin-2-yl}-N′-isopropylurea], the melting point lay within 233 to 234 °C.
`CSc1ccc2nc(-c3ccc(F)c(C)c3)c(-c3ccnc(NC(=O)NC(C)C)c3)n2n1` [Example 54, N-{4-[2-(4-Fluoro-3-methylphenyl)-6-(methylthio)imidazo[1,2-b]pyridazin-3-yl]pyridin-2-yl}-N′-isopropylurea] returned a melting point of 241 to 242 °C.
As for `Cc1cc(-c2nc3cccnn3c2-c2ccnc(N3CCCNC3=O)c2)ccc1F` [Example 55, 1-{4-[2-(4-Fluoro-3-methylphenyl)imidazo[1,2-b]pyridazin-3-yl]pyridin-2-yl}tetrahydropyrimidine-2-(1H)-one], the figure is 213 to 215 °C; as for `Cc1cc(-c2nc3cccnn3c2-c2ccnc(NC(=O)CCS(C)(=O)=O)c2)ccc1F` [Example 56, N-{4-[2-(4-Fluoro-3-methylphenyl)imidazo[1,2-b]pyridazin-3-yl]pyridin-2-yl}-3-(methylsulfonyl)propanamide], 227 to 228 °C; as for `Cc1cc(-c2nc3cccnn3c2-c2ccnc(NC(=O)CS(C)(=O)=O)c2)ccc1F` [Example 57-1, N-{4-[2-(4-fluoro-3-methylphenyl)imidazo[1,2-b]pyridazin-3-yl]pyridin-2-yl}-2-(methylsulfonyl)acetamide], 240 to 241 °C.
The figure for `Cc1cc(-c2nc3c([S+](C)[O-])cc(Cl)nn3c2-c2ccnc(N)c2)ccc1F` (stereo not shown) [Example 57-2, 4-[6-chloro-2-(4-fluoro-3-methylphenyl)-8-(methylsulfinyl)imidazo[1,2-b]pyridazin-3-yl]-2-pyridylamine] is 216 to 217 °C; for `CC(=O)CNC(=O)Nc1cc(-c2c(-c3ccc(F)c(C)c3)nc3cccnn23)ccn1` [Example 63, N-{4-[2-(4-Fluoro-3-methylphenyl)imidazo[1,2-b]pyridazin-3-yl]pyridin-2-yl}-N′-(2-oxopropyl)urea] it is 208 to 209 °C.
`Cc1cccc(-c2nc3ccc(Cl)nn3c2-c2ccnc(Nc3ccc(F)cc3C)c2)c1` [Example Compound 3-1, 4-[6-chloro-2-(3-methylphenyl)imidazo[1,2-b]pyridazin-3-yl]-N-(4-fluoro-2-methylphenyl)pyridin-2-amine] displayed a melting point of 191 to 192 °C.
On to `Cc1cccc(-c2nc3ccc(Cl)nn3c2-c2ccnc(Nc3ccccc3C)c2)c1` [Example Compound 3-2, 4-[6-chloro-2-(3-methylphenyl)imidazo[1,2-b]pyridazin-3-yl]-N-(2-methylphenyl)pyridin-2-amine], for which the melting point lay in the range of 191 to 192 °C.
For `Cc1cccc(-c2nc3cccnn3c2-c2ccnc(NC3CCCCC3)c2)c1` [Example Compound 6-1, N-cyclohexyl-4-[2-(3-methylphenyl)imidazo[1,2-b]pyridazin-3-yl]pyridin-2-amine], the melting point was in the range of 169 to 170 °C.
As for `Cc1cccc(-c2nc3cccnn3c2-c2ccnc(NC3CCCC3)c2)c1` [Example Compound 6-2, N-cyclopentyl-4-[2-(3-methylphenyl)imidazo[1,2-b]pyridazin-3-yl]pyridin-2-amine], the figure is 130 to 131 °C; as for `Cc1cccc(-c2nc3cccnn3c2-c2ccnc(NC3CCC3)c2)c1` [Example Compound 6-3, N-cyclobutyl-4-[2-(3-methylphenyl)imidazo[1,2-b]pyridazin-3-yl]pyridin-2-amine], 152 to 153 °C; as for `Cc1cccc(-c2nc3cccnn3c2-c2ccnc(NC3CC3)c2)c1` [Example Compound 6-4, N-cyclopropyl-4-[2-(3-methylphenyl)imidazo[1,2-b]pyridazin-3-yl]pyridin-2-amine], 202 to 203 °C.
As for `Cc1cccc(-c2nc3cccnn3c2-c2ccnc(NCCO)c2)c1` [Example Compound 6-5, 2-({4-[2-(3-methylphenyl)imidazo[1,2-b]pyridazin-3-yl]pyridin-2-yl}amino)ethanol], the figure is 176 to 177 °C; as for `COc1ccccc1Nc1cc(-c2c(-c3cccc(C)c3)nc3cccnn23)ccn1` [Example Compound 6-6, N-(2-methoxyphenyl)-4-[2-(3-methylphenyl)imidazo[1,2-b]pyridazin-3-yl]pyridin-2-amine], 157 to 158 °C; as for `Cc1cccc(-c2nc3cccnn3c2-c2ccnc(Nc3cccc(C)c3C)c2)c1` [Example Compound 6-7, N-(2,3-dimethylphenyl)-4-[2-(3-methylphenyl)imidazo[1,2-b]pyridazin-3-yl]pyridin-2-amine], 187 to 188 °C.
